Entries after “also recorded” stand apart in the source; their conditions may differ. Ends that are not written are not given here.
Test system: CT-26/EV tumours
Assay: Syngeneic subcutaneous tumour model, CT-26/EV cells in BALB/c mice
Format: in vivo, mouse
Conditions: CT-26/EV (no forced KITENIN overexpression), KDIP 1 mg/kg intravenously alternate days for 14 days
Method: The CT‐26 cell/syngeneic mouse model was used to investigate the in vivo effects of KDIP on colorectal tumourigenesis, as it is reported that a syngeneic mouse tumour model is good for testing the anticancer effects of candidate substances.[25], [26] Male Balb/c mice (5‐week old) were purchased from DaMul Science, Korea and acclimated for 1 week prior to subcutaneous injection of syngeneic CT‐26/EV (3 × 10^6) or CT‐26/KITENIN cells (1 × 10^6) into the dorsum. Tumour volume was calculated using the following equation: V = 1/2 × a × b […], where a and b are the longest and shortest diameters of the tumour (in millimetres), respectively. Tumour volume was measured every other day for 14 days to verify the effects of KDIP. All mice were sacrificed after Day 30 (Figure 7B), and the subcutaneous tumour grafts were surgically excised and weighed.
For the experimental tumour model, CT‐26/EV or CT‐26/KITENIN‐V5 cells were injected into the right back of BALB/c mice to form tumours, and KDIP was injected intravenously according to the timeline shown in Figure 7B. Considering the suppressive effect of KDIP on the cell invasion of CT‐26 cells, the initial test dosage was set to 1 mg/kg, which is equivalent to the half‐maximal inhibitory concentration (IC50) of KDIP on cell invasion. […] After 2 weeks of treatment, the mice were sacrificed and the tumours were analysed. […]

YARVRRRGPRRWRLVSDEAV [KDIP]
tumour growth (in words): little effect on tumor growth; also recorded: little effect on tumour growth
